{"source": "paper PMC11061149", "about": "“Protein mimetic 2D FAST rescues alpha synuclein aggregation mediated early and post disease Parkinson’s phenotypes” (Nature Communications, 2024)", "key": {"αS fibers": {"biological_target": "T1, αS fibers (Homo sapiens, UniProt P37840)", "T1 construct": "made in house; host or cells: E. coli BL21(DE3)", "experiment": "Transmission electron microscopy (TEM) of αS solutions", "assay_type": "biochemical", "procedure": "Transmission Electron Microscopy was used to visualize protein assemblies after aggregation experiments as previously described. Briefly, aliquots (5 μL) of αS solutions (with or without ligands) were applied on glow-discharged carbon-coated 300-mesh copper grids for 2 min and dried using Kimwipes (Kimberly-Clark, Irving, TX). The copper grids were negatively stained for 1 min with uranyl acetate (0.75%, w/v). The micrographs were taken on an FEI Tecnai G2 Biotwin TEM at 80 kV accelerating voltages."}, "[1]": {"biological_target": "T2, α-Synuclein (αS) aggregation (Homo sapiens, UniProt P37840)", "T2 construct": "made in house; host or cells: E. coli BL21(DE3)", "experiment": "Thioflavin T (ThT) dye-based αS aggregation assay (de novo)", "assay_type": "biochemical", "outline": "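100 μM αS incubated ±ligand at equimolar ratio, 37 °C with shaking at 1300 rpm; aliquots diluted into PBS containing 50 μM ThT. Fluorescence read at λex 450/λem 490 nm over time, single-point value taken at 96 h; mean of triplicates.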"}}, "note": "Values joined by “and” are separate entries in the source; they are usually repeats but may differ in a detail not shown here. Identical values can stand only once."}
{"compound": "Cc1ccc(NC(=O)c2ccc(NC(=O)c3ccc([N+](=O)[O-])c(NCCc4c[nH]c5ccccc45)n3)c(NCC3CCCCC3)n2)c(OCC(=O)O)n1", "note": "[NS132]", "values": [{"measurement": "αS fibers seen in TEM images, in words", "setting": "αS fibers; 100 µM αS aggregated for four days with ligand", "result": "did not observe αS fibers"}, {"measurement": "αS fibers seen in TEM images, in words", "setting": "αS fibers; fibers-catalyzed aggregation of αS, 60 h, equimolar NS132", "result": "significantly fewer αS fibers"}, {"measurement": "ThT fluorescence intensity, Average", "setting": "[1]; 100 µM αS + equimolar ligand, aggregation profile Fig. 2n/5c, time 0 hr", "result": 108}, {"measurement": "ThT fluorescence intensity, Average", "setting": "[1]; 100 µM αS + equimolar ligand, comparison with reported ligands Fig. 5f, time 0 hr", "result": 49.3333}, {"measurement": "effect on αS aggregation (ThT assay), in words", "setting": "[1]; 100 µM αS, equimolar, four days", "result": "completely suppressed"}, {"measurement": "ThT intensity relative to Synuclein alone (=1), Average", "setting": "[1]; 100 µM αS, four days, equimolar", "result": 0.008333}, {"measurement": "ThT intensity relative to Synuclein alone (=1), Trial 1-3", "setting": "[1]; 100 µM αS, four days, equimolar, individual trials", "result": "0.009745 and 0.008898 and 0.006356"}, {"measurement": "ThT fluorescence intensity, Average", "setting": "[1]; Fig. 2n/5c profile, time 6 hr", "result": 108}, {"measurement": "ThT fluorescence intensity, Average", "setting": "[1]; Fig. 2n/5c profile, time 12 hr", "result": 44.6667}, {"measurement": "ThT fluorescence intensity, Average", "setting": "[1]; Fig. 2n/5c profile, time 24 hr", "result": 48.6667}, {"measurement": "ThT fluorescence intensity, Average", "setting": "[1]; Fig. 2n/5c profile, time 35 hr", "result": 41}, {"measurement": "ThT fluorescence intensity, Average", "setting": "[1]; Fig. 2n/5c profile, time 48 hr", "result": 76.6667}, {"measurement": "ThT fluorescence intensity, Average", "setting": "[1]; Fig. 2n/5c profile, time 58 hr", "result": 49}, {"measurement": "ThT fluorescence intensity, Average", "setting": "[1]; Fig. 2n/5c profile, time 77 hr", "result": 35}, {"measurement": "ThT fluorescence intensity, Average", "setting": "[1]; Fig. 2n/5c profile, time 105 hr", "result": 35.3333}, {"measurement": "ThT fluorescence intensity, Average", "setting": "[1]; Fig. 5f profile, time 6 hr", "result": 35.6667}, {"measurement": "ThT fluorescence intensity, Average", "setting": "[1]; Fig. 5f profile, time 12 hr", "result": 44.3333}, {"measurement": "ThT fluorescence intensity, Average", "setting": "[1]; Fig. 5f profile, time 24 hr", "result": 46}, {"measurement": "ThT fluorescence intensity, Average", "setting": "[1]; Fig. 5f profile, time 36 hr", "result": 47.6667}, {"measurement": "ThT fluorescence intensity, Average", "setting": "[1]; Fig. 5f profile, time 48 hr", "result": 43.6667}, {"measurement": "ThT fluorescence intensity, Average", "setting": "[1]; Fig. 5f profile, time 72 hr", "result": 43.6667}, {"measurement": "ThT fluorescence intensity, Average", "setting": "[1]; Fig. 5f profile, time 96 hr", "result": 44.6667}, {"measurement": "Relative ThT intensity of αS aggregation, Average", "setting": "[1]; sheet S7A, Synuclein alone about 1", "result": 0.008333}, {"measurement": "Relative ThT intensity of αS aggregation", "setting": "[1]; sheet S7A, Synuclein alone about 1, individual trials", "result": "0.009745 and 0.008898 and 0.006356"}, {"measurement": "Relative ThT intensity of αS aggregation, Average", "setting": "[1]; sheet S8B, Synuclein alone = 1", "result": 0.04997}, {"measurement": "Relative ThT intensity of αS aggregation", "setting": "[1]; sheet S8B, Synuclein alone about 1, individual trials", "result": "0.0476 and 0.0492 and 0.0531"}, {"measurement": "ThT intensity of Synuclein with ligand, Average", "setting": "[1]; sheet S17, average of 3 trials, Synuclein alone 206, ThT control 37", "result": 50.3667}, {"measurement": "ThT intensity of Synuclein with ligand, Trial 1-3", "setting": "[1]; sheet S17, individual trials, Synuclein alone average 206, ThT control average 37", "result": "48.4 and 53.2 and 49.5"}, {"measurement": "inhibition of αS aggregation, in words", "setting": "[1]; substoichiometric ratio αS:NS132 1:0.2", "result": "wholly inhibit"}, {"measurement": "ThT intensity (raw), individual trials", "setting": "[1]; αS aggregation after four days, NS132 derivatives equimolar (Fig. 2r)", "result": "1344 and 1402 and 1510"}]}
